In patent US8093259B2, “4-methyl-3-[[4-(3-pyridinyl)-2-pyrimidinyl]amino]-N-[5-(4-methyl-1H-imidazol-1-yl)-3-(trifluoromethyl)phenyl]-benzamide for treatment of melanoma” (Novartis AG, priority 2006, dated 2012):
Read-outs that look alike come from different tables or passages of the source.

Assays:
[1] = mouse, in vivo, po, 50 mg/kg
Method: (§1) Plasma and lung samples were collected. Lung samples were split into two parts, one lobe was further processed for pharmacokinetic analysis, the other lobe was processed for analysis of phosphorylated EphB4 receptor. For controls, one group of animals was treated for 2 h with NMP (10%) PEG (90%).

EphB4 = biological target: T1, EphB4 (Homo sapiens, UniProt P54760); experiment: Cell capture ELISA of EphB4 phosphorylation in stably transfected A375 melanoma cells stimulated with ephrinB2; format: cell-based; settings: two independent experiments
T1 sequence (P54760 16-987): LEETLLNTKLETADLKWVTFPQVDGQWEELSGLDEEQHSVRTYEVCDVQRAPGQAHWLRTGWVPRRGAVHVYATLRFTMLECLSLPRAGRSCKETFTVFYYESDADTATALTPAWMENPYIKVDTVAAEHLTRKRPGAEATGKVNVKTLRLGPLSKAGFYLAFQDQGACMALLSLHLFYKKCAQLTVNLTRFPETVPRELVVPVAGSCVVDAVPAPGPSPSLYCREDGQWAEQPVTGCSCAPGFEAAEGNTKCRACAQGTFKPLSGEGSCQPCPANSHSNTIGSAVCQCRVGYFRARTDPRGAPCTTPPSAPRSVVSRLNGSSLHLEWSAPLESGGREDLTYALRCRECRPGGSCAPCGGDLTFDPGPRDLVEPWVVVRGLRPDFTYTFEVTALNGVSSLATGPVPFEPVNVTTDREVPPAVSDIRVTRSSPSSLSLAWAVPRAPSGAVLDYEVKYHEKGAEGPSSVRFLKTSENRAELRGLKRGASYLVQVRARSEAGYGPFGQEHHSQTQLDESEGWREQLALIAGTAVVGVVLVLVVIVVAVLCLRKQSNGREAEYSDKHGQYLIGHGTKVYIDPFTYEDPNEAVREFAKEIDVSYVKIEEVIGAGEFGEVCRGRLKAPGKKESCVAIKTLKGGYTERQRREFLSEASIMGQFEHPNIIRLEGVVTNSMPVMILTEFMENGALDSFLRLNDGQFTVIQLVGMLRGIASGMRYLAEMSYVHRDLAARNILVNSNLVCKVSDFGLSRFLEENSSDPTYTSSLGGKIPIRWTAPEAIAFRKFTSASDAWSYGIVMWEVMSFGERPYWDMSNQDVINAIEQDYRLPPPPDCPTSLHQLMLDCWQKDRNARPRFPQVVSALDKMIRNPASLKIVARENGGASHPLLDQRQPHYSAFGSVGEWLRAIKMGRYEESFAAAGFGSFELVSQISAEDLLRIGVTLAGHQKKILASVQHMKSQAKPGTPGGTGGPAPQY
Method: A cell capture ELISA has been set up to quantify the amount of phosphorylated EphB4 receptor protein in cell extracts. To this purpose, A375 melanoma cells have been stably transfected with full length EphB4 and EphB4 phosphorylation was induced by the addition of the ligand ephrinB2 in the presence of vanadate. Lysates from unstimulated cells were used as negative controls. […] Measurements were done in duplicates and two independent experiments were performed. Cell lysates were prepared and the receptor protein was captured on ELISA plates. Phosphorylated receptor was detected and quantified using alkaline phosphatase coupled anti-phosphotyrosine antibodies.

murine EphB4 kinase = biological target: T2, murine EphB4 kinase (Mus musculus, UniProt P54761); experiment: EphB4 phosphorylation in lung tissue of mice (anti-pY Western blot of immunoprecipitates); format: in vivo; settings: naïve mice, 50 mg/kg p.o.
T2 construct: from tissue; host or cells: mouse lung tissue
T2 sequence (P54761 16-987): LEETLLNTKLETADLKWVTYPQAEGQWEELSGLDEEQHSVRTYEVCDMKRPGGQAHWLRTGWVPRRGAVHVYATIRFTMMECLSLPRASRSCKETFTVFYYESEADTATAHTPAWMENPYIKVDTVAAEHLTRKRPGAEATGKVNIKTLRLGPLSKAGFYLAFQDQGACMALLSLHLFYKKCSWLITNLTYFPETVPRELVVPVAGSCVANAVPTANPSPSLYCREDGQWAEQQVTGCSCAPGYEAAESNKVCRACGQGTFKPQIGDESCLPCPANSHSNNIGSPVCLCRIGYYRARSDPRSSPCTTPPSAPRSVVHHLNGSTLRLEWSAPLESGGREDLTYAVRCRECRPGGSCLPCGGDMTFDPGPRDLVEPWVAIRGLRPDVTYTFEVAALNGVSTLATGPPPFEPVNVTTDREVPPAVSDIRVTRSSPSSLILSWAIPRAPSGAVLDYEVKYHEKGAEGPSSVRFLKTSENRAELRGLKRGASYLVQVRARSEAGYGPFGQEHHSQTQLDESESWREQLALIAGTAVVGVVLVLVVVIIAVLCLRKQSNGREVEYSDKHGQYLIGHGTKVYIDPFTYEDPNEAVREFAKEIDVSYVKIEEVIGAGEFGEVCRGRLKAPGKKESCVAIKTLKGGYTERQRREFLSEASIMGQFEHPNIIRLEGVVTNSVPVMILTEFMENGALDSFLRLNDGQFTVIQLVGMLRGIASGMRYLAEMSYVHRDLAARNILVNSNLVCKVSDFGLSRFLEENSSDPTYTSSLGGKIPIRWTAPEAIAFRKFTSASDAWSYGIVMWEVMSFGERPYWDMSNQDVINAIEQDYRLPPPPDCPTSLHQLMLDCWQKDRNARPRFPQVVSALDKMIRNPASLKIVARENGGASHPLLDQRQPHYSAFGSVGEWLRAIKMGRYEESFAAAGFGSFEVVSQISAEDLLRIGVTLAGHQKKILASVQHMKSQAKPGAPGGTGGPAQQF
Method: as §1

Structure (SMILES): Cc1cn(-c2cc(NC(=O)c3ccc(C)c(Nc4nccc(-c5cccnc5)n4)c3)cc(C(F)(F)F)c2)cn1 [4-Methyl-3-[[4-(3-pyridinyl)-2-pyrimidinyl]amino]-N-[5-(4-methyl-1H-imidazol-1-yl)-3-(trifluoromethyl)phenyl] benzamide]
- Compound level in lung tissue ([1]; 2 h): 40 to 50 nmol/g
- Compound level in lung tissue ([1]; 24 h): 0.7 nmol/g
- Inhibition of EphB4 phosphorylation (EphB4): dose dependently inhibited EphB4 phosphorylation
- Phosphorylation of EphB4 in lung tissue (murine EphB4 kinase; 2 h after administration): nearly abolished
- Phosphorylation of EphB4 in lung tissue (murine EphB4 kinase; 24 h after administration): recovers to control levels
- Effect on EphB4 protein levels in lung tissue (murine EphB4 kinase; both time points (2 h and 24 h)): No effect
